According to patent publication US10988502B2, “Alpha-D-galactoside inhibitors of galectins” (GALECTO BIOTECH AB, priority 2016, dated 2021):

Columns and labels:
Galectin-3 = Galectin-3 (Homo sapiens (Human), UniProt P17931); assay: Fluorescence anisotropy assay, compound as inhibitor of galectin / fluorescein tagged saccharide probe interaction; type: binding
Method: (§1) The affinity of Example 1-32 for galectins were determined by a fluorescence anisotropy assay where the compound was used as an inhibitor of the interaction between galectin and a fluorescein tagged saccharide probe as described Sörme, P., Kahl-Knutsson, B., Huflejt, M., Nilsson, U. J., and Leffler H. (2004) Fluorescence polarization as an analytical tool to evaluate galectin-ligand interactions. Anal. Biochem. 334: 36-47, (Sörme et al., 2004) and Monovalent interactions of Galectin-1 By Salomonsson, Emma; Larumbe, Amaia; Tejler, Johan; Tullberg, Erik; Rydberg, Hanna; Sundin, Anders; Khabut, Areej; Frejd, Torbjorn; Lobsanov, Yuri D.; Rini, James M.; et al, From Biochemistry (2010), 49(44), 9518-9532, (Salonmonsson et al., 2010).

Galectin-1 = Galectin-1 (Homo sapiens (Human), UniProt P09382); assay: as above; type: binding
Method: as §1

Galectin-3, sequence (P17931 whole entry): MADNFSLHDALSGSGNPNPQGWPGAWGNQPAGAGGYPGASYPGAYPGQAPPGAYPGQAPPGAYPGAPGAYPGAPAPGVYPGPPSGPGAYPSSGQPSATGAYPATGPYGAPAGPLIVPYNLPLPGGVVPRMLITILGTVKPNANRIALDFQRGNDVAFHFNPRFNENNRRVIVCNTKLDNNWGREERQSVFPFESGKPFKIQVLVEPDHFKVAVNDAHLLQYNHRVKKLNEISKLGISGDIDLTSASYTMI

Kd (Galectin-3) [nM]	Kd (Galectin-1) [nM]	Structure (SMILES)
1200	200	N#Cc1ncc(Br)cc1S[C@H]1O[C@H](CO)[C@H](O)[C@H](n2cc(-c3nccs3)nn2)[C@H]1O [Example 22, 5-Bromo-2-cyano-pyridine-3-yl 3-deoxy-3-[4-(2-thiazolyl)-1H-1,2,3-triazol-1-yl]-1-thio-α-D-galactopyranoside]
970	550	OC[C@H]1O[C@H](Sc2ccc(Cl)c(Cl)c2)[C@H](O)[C@@H](n2cc(-c3ccc(F)s3)nn2)[C@H]1O [Example 9, 3,4-Dichlorophenyl 3-deoxy-3-[4-(5-fluoro-2-thiophenyl)-1H-1,2,3-triazol-1-yl]-1-thio-α-D-galactopyranoside]
4400	350	OC[C@H]1O[C@H](Sc2cc(Cl)c(Cl)c(Cl)c2)[C@H](O)[C@@H](n2cc(-c3nncs3)nn2)[C@H]1O [Example 19, 3,4,5-Trichlorophenyl 3-deoxy-3-[4-(1,3,4-thiadiazol-2-yl)-1H-1,2,3-triazol-1-yl]-1-thio-α-D-galactopyranoside]
460	120	OC[C@H]1O[C@H](Sc2ccc(Cl)c(Cl)c2)[C@H](O)[C@@H](n2cc(-c3nc(Cl)cs3)nn2)[C@H]1O [Example 31, 3,4-Dichlorophenyl 3-deoxy-3-[4-(4-chloro-thiazol-2-yl)-1H-1,2,3-triazol-1-yl]-1-thio-α-D-galactopyranoside]
1300	610	OC[C@H]1O[C@H](Sc2cc(Cl)c(Cl)c(Cl)c2)[C@H](O)[C@@H](n2cc(-c3nccs3)nn2)[C@H]1O [Example 17, 3,4,5-Trichlorophenyl 3-deoxy-3-[4-(2-thiazolyl)-1H-1,2,3-triazol-1-yl]-1-thio-α-D-galactopyranoside]
1950	190	N#Cc1cc(F)c(S[C@H]2OC(CO)[C@H](O)[C@H](n3cc(-c4ccsc4)nn3)C2O)cc1Cl (stereo partly drawn) [Example 2, 2-Chloro-5-fluoro-benzonitril-4-yl 3-deoxy-3-[4-(3-thiophenyl)-1H-1,2,3-triazol-1-yl]-1-thio-α-D-galactopyranoside]
4100	240	OC[C@H]1O[C@H](Sc2ccc(Cl)c(Cl)c2)[C@H](O)[C@@H](n2cc(-c3nccs3)nn2)[C@H]1O [Example 18, 3,4-Dichlorophenyl 3-deoxy-3-[4-(2-thiazolyl)-1H-1,2,3-triazol-1-yl]-1-thio-α-D-galactopyranoside]
210	790	OC[C@H]1O[C@H](Sc2ccc(Cl)c(Cl)c2)[C@H](O)[C@@H](n2cc(-c3nc(C(F)(F)F)cs3)nn2)[C@H]1O [Example 32, 3,4-Dichlorophenyl 3-deoxy-3-[4-(4-trifluoromethyl-thiazol-2-yl)-1H-1,2,3-triazol-1-yl]-1-thio-α-D-galactopyranoside]
12000	800	N#Cc1c(Cl)cc(S[C@H]2OC(CO)[C@H](O)[C@H](n3cc(-c4nccs4)nn3)C2O)cc1Cl (stereo partly drawn) [Example 16, 2,6-Dichloro-bensonitril-4-yl 3-deoxy-3-[4-(2-thiazolyl)-1H-1,2,3-triazol-1-yl]-1-thio-α-D-galactopyranoside]
4400	440	N#Cc1ncc(S[C@H]2O[C@H](CO)[C@H](O)[C@H](n3cc(-c4nccs4)nn3)[C@H]2O)cc1Cl [Example 23, 5-Chloro-6-cyano-pyridine-3-yl 3-deoxy-3-[4-(2-thiazolyl)-1H-1,2,3-triazol-1-yl]-1-thio-α-D-galactopyranoside]
1600	340	OC[C@H]1O[C@H](Sc2cc(Cl)cc(Cl)c2)[C@H](O)[C@@H](n2cc(-c3nccs3)nn2)[C@H]1O [Example 24, 3,5-Dichlorophenyl 3-deoxy-3-[4-(2-thiazolyl)-1H-1,2,3-triazol-1-yl]-1-thio-α-D-galactopyranoside]
4700	490	OC[C@H]1O[C@H](Sc2ccc(F)c(Br)c2)[C@H](O)[C@@H](n2cc(-c3nccs3)nn2)[C@H]1O [Example 27, 3-Bromo-4-fluoro-phenyl 3-deoxy-3-[4-(2-thiazolyl)-1H-1,2,3-triazol-1-yl]-1-thio-α-D-galactopyranoside]
4400	440	OC[C@H]1O[C@H](Sc2ccc(Cl)c(Br)c2)[C@H](O)[C@@H](n2cc(-c3nccs3)nn2)[C@H]1O [Example 25, 3-Bromo-4-chlorophenyl 3-deoxy-3-[4-(2-thiazolyl)-1H-1,2,3-triazol-1-yl]-1-thio-α-D-galactopyranoside]
4100	250	OC[C@H]1O[C@H](Sc2cncc(Br)c2)[C@H](O)[C@@H](n2cc(-c3cscn3)nn2)[C@H]1O [Example 10, 5-Bromopyridin-3-yl 3-deoxy-3-[4-(4-thiazolyl)-1H-1,2,3-triazol-1-yl]-1-thio-α-D-galactopyranoside]
810	150	OCC1O[C@H](Sc2ccc(Cl)c(Cl)c2)C(O)[C@@H](n2cc(-c3nc(Br)cs3)nn2)[C@H]1O (stereo partly drawn) [Example 29, 3,4-dichlorophenyl 3-deoxy-3-[4-(4-bromo-2-thiazol-2-yl)-1H-1,2,3-triazol-1-yl]-1-thio-α-D-galactopyranoside]
6100	370	N#Cc1ccc(S[C@H]2OC(CO)[C@H](O)[C@H](n3cc(-c4cscn4)nn3)C2O)cc1Cl (stereo partly drawn) [Example 13, 2-Chloro-benzonitril-4-yl 3-deoxy-3-[4-(4-thiazolyl)-1H-1,2,3-triazol-1-yl]-1-thio-α-D-galactopyranoside]
1800	220	OC[C@H]1O[C@H](Sc2cncc(Cl)c2)[C@H](O)[C@@H](n2cc(-c3nccs3)nn2)[C@H]1O [Example 21, 5-Chloropyridin-3-yl 3-deoxy-3-[4-(2-thiazolyl)-1H-1,2,3-triazol-1-yl]-1-thio-α-D-galactopyranoside]
690	240	OC[C@H]1O[C@H](Sc2ccc(Cl)c(Cl)c2)[C@H](O)[C@@H](n2cc(-c3ccc(F)cn3)nn2)[C@H]1O [Example 6, 3,4-Dichlorophenyl 3-deoxy-3-[4-(5-fluoro-2-pyridyl)-1H-1,2,3-triazol-1-yl]-1-thio-α-D-galactopyranoside]
4600	550	OCC1O[C@H](Sc2cncc(Br)c2)C(O)[C@@H](n2cc(-c3nccs3)nn2)[C@H]1O (stereo partly drawn) [Example 20, 5-Bromopyrdin-3-yl 3-deoxy-3-[4-(2-thiazolyl)-1H-1,2,3-triazol-1-yl]-1-thio-α-D-galactopyranoside]

Structure (SMILES)	Kd (Galectin-3) [nM]	Kd (Galectin-1) [nM]
OC[C@H]1O[C@H](Sc2ccc(Cl)c(Cl)c2)[C@H](O)[C@@H](n2cc(-c3cscn3)nn2)[C@H]1O [Example 12, 3,4-Dichlorophenyl 3-deoxy-3-[4-(4-thiazolyl)-1H-1,2,3-triazol-1-yl]-1-thio-α-D-galactopyranoside]	5300	310
OC[C@H]1O[C@H](Sc2cc(Cl)c(F)c(Cl)c2)[C@H](O)[C@@H](n2cc(-c3cccs3)nn2)[C@H]1O [Example 8, 3,5-Dichloro-4-fluoro-phenyl 3-deoxy-3-[4-(2-thiophenyl)-1H-1,2,3-triazol-1-yl]-1-thio-α-D-galactopyranoside]	2300	920
OC[C@H]1O[C@H](Sc2cncc(Br)c2)[C@H](O)[C@@H](n2cc(-c3ccsc3)nn2)[C@H]1O [Example 3, 5-Bromopyridin-3-yl 3-deoxy-3-[4-(3-thiophenyl)-1H-1,2,3-triazol-1-yl]-1-thio-α-D-galactopyranoside]	1700	680
